Several values for one entry are separate records, joined by “and”; a condition that tells them apart may be missing. Equal entries are not always repeated.
What was measured:
beta-tubulin = assay: Skin biopsy immunohistochemistry, tubulin expression; type: in vivo, human; conditions: skin biopsies, oral tivantinib for two weeks (with bevacizumab), C1D15
p-Tyr1234/5-Met = p-Tyr1234/5-Met (Homo sapiens, UniProt P08581); assay: Skin biopsy immunohistochemistry, p-MET expression; type: in vivo; conditions: skin biopsies following tivantinib (with bevacizumab), C1D15
p-Tyr1234/5-Met, sequence (P08581 25-1390): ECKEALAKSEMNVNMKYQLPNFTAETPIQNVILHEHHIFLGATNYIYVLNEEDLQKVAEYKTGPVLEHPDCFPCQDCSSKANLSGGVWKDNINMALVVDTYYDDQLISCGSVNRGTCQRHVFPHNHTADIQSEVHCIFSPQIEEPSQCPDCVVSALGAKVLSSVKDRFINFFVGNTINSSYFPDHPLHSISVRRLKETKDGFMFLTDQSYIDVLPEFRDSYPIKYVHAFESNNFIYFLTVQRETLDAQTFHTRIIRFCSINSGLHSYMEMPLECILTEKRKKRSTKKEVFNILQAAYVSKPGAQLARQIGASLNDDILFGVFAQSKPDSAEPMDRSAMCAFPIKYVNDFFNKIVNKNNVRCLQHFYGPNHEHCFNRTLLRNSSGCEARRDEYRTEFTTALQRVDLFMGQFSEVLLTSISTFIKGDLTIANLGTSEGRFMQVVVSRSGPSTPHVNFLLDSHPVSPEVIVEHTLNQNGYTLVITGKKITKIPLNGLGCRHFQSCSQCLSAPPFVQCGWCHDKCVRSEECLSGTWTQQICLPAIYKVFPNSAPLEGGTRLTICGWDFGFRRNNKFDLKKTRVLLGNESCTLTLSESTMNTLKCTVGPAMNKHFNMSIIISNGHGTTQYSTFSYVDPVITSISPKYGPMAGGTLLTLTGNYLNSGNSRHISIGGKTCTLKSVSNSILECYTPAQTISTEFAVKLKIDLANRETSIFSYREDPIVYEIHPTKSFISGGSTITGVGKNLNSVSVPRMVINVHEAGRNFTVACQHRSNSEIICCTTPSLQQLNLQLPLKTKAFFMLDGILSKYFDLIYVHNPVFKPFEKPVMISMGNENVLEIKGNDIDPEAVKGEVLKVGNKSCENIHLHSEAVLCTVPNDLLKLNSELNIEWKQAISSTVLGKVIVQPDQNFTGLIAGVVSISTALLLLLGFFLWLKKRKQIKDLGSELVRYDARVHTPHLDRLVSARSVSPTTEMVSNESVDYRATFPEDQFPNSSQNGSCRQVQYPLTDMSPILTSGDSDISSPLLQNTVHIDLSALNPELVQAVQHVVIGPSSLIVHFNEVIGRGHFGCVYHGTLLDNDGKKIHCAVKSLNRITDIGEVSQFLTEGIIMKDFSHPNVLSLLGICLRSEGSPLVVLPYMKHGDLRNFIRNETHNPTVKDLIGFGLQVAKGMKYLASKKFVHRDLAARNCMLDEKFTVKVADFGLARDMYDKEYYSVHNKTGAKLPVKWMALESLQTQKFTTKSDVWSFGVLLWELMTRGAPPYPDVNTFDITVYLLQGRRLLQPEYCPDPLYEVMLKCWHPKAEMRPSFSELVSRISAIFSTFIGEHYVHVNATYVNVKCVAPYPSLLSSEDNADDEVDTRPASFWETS

Met = Met (Homo sapiens, UniProt P08581); assay: Skin biopsy immunohistochemistry, total MET expression; type: in vivo; conditions: skin biopsies after tivantinib treatment
Met, sequence (P08581 25-1390): as above

β-tubulin = assay: Total β-tubulin expression in patient PBMCs by immunoblot; type: in vivo, human; conditions: following tivantinib treatment, data not shown
[1] = tested on: human RKO colon cancer cells; assay: Immunoblot of α- and β-tubulin expression in RKO cells; type: cell-based; conditions: supplemental Fig. 3A
tubulin = assay: Tubulin polymerization assay; type: biochemical; conditions: supplemental Fig. 3B
bFGF = assay: Plasma bFGF level; type: in vivo, human
PlGF = assay: Plasma placental growth factor level; type: in vivo, human
HGF = assay: Plasma HGF level; type: in vivo, human
soluble VEGFR1 (sVEGFR1) = assay: Plasma soluble VEGFR1 level; type: in vivo, human
VEGF-A = assay: Plasma VEGF-A level; type: in vivo, human
[2] = human, in vivo, 1 day
[3] = day 5, previously reported; cited from earlier work
CYP3A4 = conditions: at 50 µM (~ 18 µg/mL); ArQule data on file; cited from earlier work
[4] = Plasma pharmacokinetics of tivantinib and metabolites; conditions: for Cl/F: first dose, based on AUC0–inf; for half-life: t½
[5] = addition of tivantinib to bevacizumab

For O=C1NC(=O)[C@@H](c2cn3c4c(cccc24)CCC3)[C@@H]1c1c[nH]c2ccccc12 [tivantinib], the “Patients with substantial reductions in tubulin expression in skin” value (beta-tubulin) was 4/11 and 4 of 11, the “Patients with reduced p-MET expression in skin” value (p-Tyr1234/5-Met) was 7/11 and 7 of 11 and the “Total MET expression in the cytoplasm (skin)” value (Met) was “remained unchanged”. The “Tubulin expression in patient PBMCs” value (β-tubulin) was “No significant differences”, the “α- and β-tubulin protein expression” value [1] was “loss of both α- and β-tubulin protein expression” and the Tubulin polymerization (tubulin) was “inhibited tubulin polymerization, but not to the same extent as vincristine”. For the same compound, the “Plasma bFGF concentrations” value (bFGF; day 15, following 14 days of tivantinib added to bevacizumab, p = 0.047) was “returned to baseline in most patients”, the “Plasma PIGF concentrations” value (PlGF; [5]) was “did not alter PIGF concentrations” and the “Plasma HGF concentrations” value (HGF; addition of tivantinib, in the six patients with increase after bevacizumab) was “decreased in these same patients”. For the same compound, the “Plasma sVEGFR1 concentrations” value (soluble VEGFR1 (sVEGFR1); following tivantinib administration) was “increased in four patients”, the “Plasma VEGF-A concentrations” value (VEGF-A; [5]) was “did not alter VEGF-A concentrations” and the “Dose-normalised exposure on day 1” value [2] was 5.82 ng/mL/mg. The Steady-state clearance [3] was 11.8 L/h, the “Time-dependent inhibition of CYP3A4” value (CYP3A4) was “exhibits time-dependent inhibition” and the t½ ([4]; Total (N = 11), all dose levels, day 1, plasma, mean (SD)) was 5.1 (2.4) h. For the same compound, the Cl/F ([4]; Total (N = 11), mean (SD)) was 24.9 L/h, the AUC(0-t) ([4]; human, plasma, oral, AUC0–8, tivantinib 360/240 mg AM/PM (N = 1), day 1, plasma) was 5020 ng·h/mL and the Tmax ([4]; human, plasma, oral, Tmax, tivantinib 120/120 mg AM/PM (N = 1), day 1, plasma) was 2.5 h. The Tmax ([4]; human, plasma, oral, Tmax, tivantinib 360/240 mg AM/PM (N = 1), day 1, plasma) was 3 h, the half-life ([4]; human, plasma, oral, tivantinib 120/120 mg AM/PM (N = 1), day 1, plasma) was 8.2 h and the half-life ([4]; human, plasma, oral, tivantinib 360/240 mg AM/PM (N = 1), day 1, plasma) was 9.2 h. The Tmax ([4]; human, plasma, po, Time of peak plasma concentration, day 1, all 11 patients) was about 3 h, the “AUC0–8” value ([4]; tivantinib 120/120 mg AM/PM (N = 1), day 1, plasma) was 5570 ng·h/mL and the Cl/F ([4]; tivantinib 120/120 mg AM/PM (N = 1)) was 9.43 L/h. For the same compound, the Cl/F ([4]; tivantinib 360/240 mg AM/PM (N = 1)) was 25.8 L/h and the “Time for accumulation to reach steady-state” value ([4]; twice daily dosing) was at most 24 h.
In the case of CC[C@]1(O)C[C@H]2CN(CCc3c([nH]c4ccccc34)[C@@](C(=O)OC)(c3cc4c(cc3OC)N(C=O)[C@H]3[C@@](O)(C(=O)OC)[C@H](OC(C)=O)[C@]5(CC)C=CCN6CC[C@]43[C@@H]65)C2)C1 [vincristine, reference compound], the “α- and β-tubulin protein expression” value [1] is reported as “loss of both α- and β-tubulin protein expression”.
For bevacizumab [reference compound], the “Patients with increased plasma bFGF” value (bFGF; after bevacizumab-only lead-in (day 1 vs day − 15), p = 0.008) was 8 of 11, the “Average increase of plasma PIGF” value (PlGF; after bevacizumab treatment) was 60% and the “Patients with increased plasma PIGF” value (PlGF; after bevacizumab treatment, p = 0.005) was 10 of 11. The “Plasma HGF concentrations” value (HGF; after bevacizumab treatment) was “increased in six patients”, the “Plasma sVEGFR1 concentrations” value (soluble VEGFR1 (sVEGFR1); after bevacizumab administration, five patients with elevated baseline) was “decreased” and the “Plasma VEGF-A” value (VEGF-A; after bevacizumab treatment) was “decreased expression of VEGF-A in two patients (#01; #07) and increases in eight patients”.
